Several values for one entry are separate records, joined by “and”; a condition that tells them apart may be missing. Equal entries are not always repeated. Entries after “also recorded” stand apart in the source; their conditions may differ. Where two headings read alike, the source gives them in different places.
Legend:
[1] = test system: Lactobacillus casei ATCC393; assay type: cell-based; parameters: key to Agglomeration: Good: Those in which agglomeration observed under upright microscope; Poor: Those in which no agglomeration observed under upright microscope
[2] = test system: Escherichia coli MG1655; assay type: cell-based; parameters: key: Good: Those in which agglomeration observed under upright microscope; Poor: Those in which no agglomeration observed under upright microscope
[3] = test system: Clostridium perfringens ATCC10873; assay type: cell-based; parameters: key: Good: Those in which agglomeration observed under upright microscope; Poor: Those in which no agglomeration observed under upright microscope; settings: Table 4, 500 mM
[4] = test system: Bifidobacterium animalis JCM1190; assay type: cell-based; parameters: key to Agglomeration: Good: Those in which agglomeration observed under upright microscope; Poor: Those in which no agglomeration observed under upright microscope
[5] = test system: Clostridium perfringens ATCC10873; assay type: cell-based; settings: for Shape: 8 hours; for Agglomeration (text) / Shape of the bacterial cells: Example 2 strains
[6] = test system: Clostridium perfringens ATCC10873; assay type: cell-based; parameters: key: Good: Agglomeration effect observed; Poor: No agglomeration effect observed
[7] = test system: Clostridium perfringens CNEOP004 (netB toxin producer); assay type: cell-based; parameters: key to Agglomeration: Good: Agglomeration effect observed; Poor: No agglomeration effect observed; settings: 500 mM
[8] = test system: Salmonella enterica IAM1648; assay type: cell-based; parameters: key: Good: Those in which agglomeration observed under upright microscope; Poor: Those in which no agglomeration observed under upright microscope
[9] = test system: Clostridium perfringens SM101; assay type: cell-based; parameters: unit not given here; settings: bacterial cells, 500 mM, 8 hours, diluted 100 times
[10] = test system: Clostridium perfringens ATCC10873; assay type: cell-based; parameters: unit not given here; settings: bacterial cells, 8 hours, diluted 100 times
[11] = test system: Clostridium perfringens CNEOP004; assay type: cell-based; parameters: unit not given here; settings: bacterial cells, 500 mM, 8 hours, diluted 100 times
[12] = test system: Clostridium perfringens ATCC10873; assay type: cell-based; parameters: key to Settling: Good: Settling effect observed; Poor: No settling effect observed; settings: for Settling: 37° C., 8 hours; for Concentration required for settling / at which settling was confirmed: optical density about 2.0 at 660 nm
[13] = test system: Clostridium perfringens SM101 (CPE toxin producer); assay type: cell-based; parameters: key to Agglomeration: Good: Agglomeration effect observed; Poor: No agglomeration effect observed; settings: 500 mM
[14] = test system: mixed bacterial cells of Clostridium perfringens ATCC10873, Salmonella enterica IAM1648 and E. coli MG1655; assay type: cell-based; settings: 500 mM in combination with Arabic Gum 1%; OD660 about 2.0, 37° C.
[15] = test system: Clostridium perfringens strain SM101; assay type: cell-based; settings: KCl 500 mM
[16] = test system: Clostridium perfringens; assay type: in vivo, chickens (broilers); settings: for Dead birds Total: 500 chickens
[17] = parameters: species or system chickens (broilers, UK Chunky); settings: in vivo
[18] = Table 2-1, 100 mM, without AG, 8 hours
[19] = Table 2-1, 500 mM, w/AG 1%, 8 hours
[20] = Table 2-1, 500 mM, without AG, 8 hours
[21] = Day 0-14, BMD 55 ppm, Coated-KCl 47 ppm in feed
[22] = Day 15-28, BMD 55 ppm, Coated-KCl 47 ppm in feed
[23] = Day 29-42, BMD 55 ppm, Coated-KCl 47 ppm in feed

[Ca+2].[Cl-].[Cl-] [CaCl2]
Agglomeration [1]: Poor
Agglomeration [2]: Poor
Agglomeration ([3]; without AG): Good
Agglomeration [4]: Poor
Shape ([5]; 20 mM, without AG): Rod-shaped
Shape ([5]; 100 mM, without AG): Rod-shaped
Concentration at which bacterial cells agglomerated ([5]; absence of AG): ≥ 20 mM
Agglomeration (text) ([5]; absence of AG): agglomerated in the state of bacilli
Agglomeration ([6]; Table 2-1, 20 mM, without AG, 8 hours): Good
Agglomeration [6, 18]: Good
Agglomeration ([6]; Table 3-1, 20 mM, without AG): Good
Agglomeration ([6]; Table 3-1, 100 mM, without AG): Good
Shape ([7]; without AG, 8 hours): Rod-shaped
Agglomeration ([7]; Table 2-3, without AG, 8 hours): Good
Agglomeration ([7]; Table 3-3, without AG): Good
Agglomeration [8]: Poor
Zeta potential ([9]; without AG): −14.3
Zeta potential ([10]; 20 mM, without AG): −4.4
Zeta potential ([10]; 100 mM, without AG): −4.0
Zeta potential ([11]; without AG): −12.3
Settling ([12]; 20 mM, without AG): Poor
Settling ([12]; 100 mM, without AG): Poor
Shape ([13]; without AG, 8 hours): Rod-shaped
Agglomeration ([13]; Table 2-2, without AG, 8 hours): Good
Agglomeration ([13]; Table 3-2, without AG): Good

[Cl][Fe][Cl] [FeCl2]
Agglomeration [1]: Good
Agglomeration effect [1]: showed an agglomeration effect
Agglomeration [2]: Poor
Agglomeration ([3]; without AG): Good
Agglomeration [4]: Good
Agglomeration effect [4]: showed an agglomeration effect
Shape ([5]; 10 mM, without AG): Rod-shaped
Shape ([5]; 50 mM, without AG): Rod-shaped
Concentration at which bacterial cells agglomerated ([5]; absence of AG): ≥ 10 mM
Agglomeration (text) ([5]; absence of AG): showed an agglomeration effect; also recorded: agglomerated in the state of bacilli
Agglomeration ([6]; Table 2-1, 10 mM, without AG, 8 hours): Good
Agglomeration ([6]; Table 2-1, 50 mM, without AG, 8 hours): Good
Agglomeration ([6]; Table 3-1, 10 mM, without AG): Good
Agglomeration ([6]; Table 3-1, 50 mM, without AG): Good
Shape ([7]; without AG, 8 hours): Rod-shaped
Agglomeration ([7]; Table 2-3, without AG, 8 hours): Good
Agglomeration ([7]; Table 3-3, without AG): Good
Agglomeration [8]: Poor
Zeta potential ([9]; without AG): 4.1
Zeta potential ([10]; 10 mM, without AG): 0.8
Zeta potential ([10]; 50 mM, without AG): 20.7
Zeta potential ([11]; without AG): 21.5
Settling ([12]; 10 mM, without AG): Good
Settling ([12]; 50 mM, without AG): Good
Concentration required for settling / at which settling was confirmed ([12]; absence of AG): ≥ 10 mM
Shape ([13]; without AG, 8 hours): Rod-shaped
Agglomeration ([13]; Table 2-2, without AG, 8 hours): Good
Agglomeration ([13]; Table 3-2, without AG): Good

[Cl-].[K+] [KCl]
Agglomeration of the three types of enteric bad bacteria [14]: can quickly agglomerate
Agglomeration [1]: Poor
Agglomeration effect [1]: not exerted
Agglomeration [2]: Poor and Good
Agglomeration ([3]; W/AG 1%): Good
Agglomeration ([3]; without AG): Poor
Agglomeration [4]: Poor
Agglomeration effect [4]: not exerted
Shape ([5]; 100 mM, without AG): Spheroidal
Shape ([5]; 500 mM, w/AG 1%): Spheroidal
Shape ([5]; 500 mM, without AG): Spheroidal
Agglomeration (text) ([5]; absence of AG): did not agglomerate
Shape of the bacterial cells ([5]; absence of AG): changed from bacilli to cocci
Agglomeration (text) ([5]; coexistence with AG): agglomerated in the state of cocci
Nature of cocci (vegetative cells or spores) under phase-contrast microscope [15]: not spores
Agglomeration [6, 18]: Poor
Agglomeration [6, 19]: Good
Agglomeration [6, 20]: Poor
Agglomeration ([6]; Table 3-1, 500 mM, W/AG 1%): Good
Agglomeration ([6]; Table 3-1, 500 mM, without AG): Poor
Shape ([7]; w/AG 1%, 8 hours): Spheroidal
Shape ([7]; without AG, 8 hours): Spheroidal
Agglomeration ([7]; Table 2-3, w/AG 1%, 8 hours): Good
Agglomeration ([7]; Table 2-3, without AG, 8 hours): Poor
Agglomeration ([7]; Table 3-3, w/AG 1%): Good
Agglomeration ([7]; Table 3-3, without AG): Poor
Agglomeration [8]: Poor and Good
Zeta potential ([9]; w/AG 1%): −26.5
Zeta potential ([9]; without AG): −30.2
Zeta potential ([10]; 500 mM, W/AG 1%): −10.2
Zeta potential ([10]; 500 mM, without AG): −29.0
Zeta potential ([11]; w/AG 1%): −23
Zeta potential ([11]; without AG): −25
Settling ([12]; 100 mM, without AG): Good
Settling ([12]; 500 mM, w/AG 1%): Good
Settling ([12]; 500 mM, without AG): Good
Concentration required for settling / at which settling was confirmed ([12]; absence of AG): ≥ 100 mM
Shape ([13]; w/AG 1%, 8 hours): Spheroidal
Shape ([13]; without AG, 8 hours): Spheroidal
Agglomeration ([13]; Table 2-2, w/AG 1%, 8 hours): Good
Agglomeration ([13]; Table 2-2, without AG, 8 hours): Poor
Agglomeration ([13]; Table 3-2, w/AG 1%): Good
Agglomeration ([13]; Table 3-2, without AG): Poor

[Cl-].[Cl-].[Mg+2] [MgCl2]
Agglomeration [1]: Poor and Good
Agglomeration [2]: Poor and Good
Agglomeration ([3]; W/AG 1%): Good
Agglomeration ([3]; without AG): Poor
Agglomeration [4]: Poor
Shape ([5]; 500 mM, w/AG 1%): Rod-shaped
Shape ([5]; 500 mM, without AG): Rod-shaped
Agglomeration (text) ([5]; absence of AG): no agglomeration was observed
Shape of the bacterial cells ([5]; absence of AG): shape as bacilli remained unchanged
Agglomeration (text) ([5]; coexistence with AG): agglomeration of Clostridium perfringens was observed
Agglomeration [6, 19]: Good
Agglomeration [6, 20]: Poor
Agglomeration ([6]; Table 3-1, 500 mM, W/AG 1%): Good
Agglomeration ([6]; Table 3-1, 500 mM, without AG): Poor
Shape ([7]; w/AG 1%, 8 hours): Rod-shaped
Shape ([7]; without AG, 8 hours): Rod-shaped
Agglomeration ([7]; Table 2-3, w/AG 1%, 8 hours): Good
Agglomeration ([7]; Table 2-3, without AG, 8 hours): Poor
Agglomeration ([7]; Table 3-3, w/AG 1%): Good
Agglomeration ([7]; Table 3-3, without AG): Good
Agglomeration [8]: Poor and Good
Zeta potential ([9]; w/AG 1%): −10.2
Zeta potential ([9]; without AG): −12.1
Zeta potential ([10]; 500 mM, W/AG 1%): −12.9
Zeta potential ([10]; 500 mM, without AG): −3.2
Zeta potential ([11]; w/AG 1%): −11.8
Zeta potential ([11]; without AG): −12
Settling effect ([12]; 500 mM, absence of AG): did not exert a settling effect
Settling effect ([12]; 500 mM, in combination with AG): exerted a settling effect
Settling ([12]; 500 mM, w/AG 1%): Good
Settling ([12]; 500 mM, without AG): Poor
Concentration required for settling / at which settling was confirmed ([12]; absence of AG): over 500 mM
Shape ([13]; w/AG 1%, 8 hours): Rod-shaped
Shape ([13]; without AG, 8 hours): Rod-shaped
Agglomeration ([13]; Table 2-2, w/AG 1%, 8 hours): Good
Agglomeration ([13]; Table 2-2, without AG, 8 hours): Poor
Agglomeration ([13]; Table 3-2, w/AG 1%): Good
Agglomeration ([13]; Table 3-2, without AG): Good

[Cl-].[Na+] [NaCl]
Agglomeration of the three types of enteric bad bacteria [14]: can quickly agglomerate
Shape ([5]; 500 mM, w/AG 1%): Spheroidal
Shape ([5]; 500 mM, without AG): Spheroidal
Agglomeration (text) ([5]; absence of AG): did not agglomerate
Shape of the bacterial cells ([5]; absence of AG): changed from bacilli to cocci
Agglomeration (text) ([5]; coexistence with AG): agglomerated in the state of cocci
Agglomeration [6, 19]: Good
Agglomeration [6, 20]: Poor
Settling ([12]; 20 mM, without AG): Poor
Settling ([12]; 100 mM, without AG): Poor
Settling ([12]; 500 mM, w/AG 1%): Good
Settling ([12]; 500 mM, without AG): Good

bacitracin methylene disalicylate [BMD]
Dead birds Total [16, 21]: 19
Dead birds NE Caused [16, 21]: 0
Dead birds Total [16, 22]: 10
Dead birds NE Caused [16, 22]: 4
Dead birds Total [16, 23]: 6
Dead birds NE Caused [16, 23]: 0
NE Caused Mortality ([16]; average, 6 weeks, BMD 55 ppm, Coated-KCl 47 ppm in feed): 0.80
NE Lesion Score ([16]; day 17, three birds per pen, 0 = none to 3 = severe, average, BMD 55 ppm, Coated-KCl 47 ppm): 0.30
Mortality reduced to, as compared with Challenge Control ([16]; text b129): 13.2%
BWG %: versus Control (Non treatment) [17]: 106.0% and 103.9% and 103.5%
Weight gain as compared with Control (Non treatment), in words [17]: weight gain was improved

— patent US20240225053A9 (priority 2021, published 2024)
